Reference: ChEMBL document CHEMBL6096677, “Discovery of HZS60 as a Novel Brain Penetrant NMDAR/TRPM4 Interaction Interface Inhibitor with Improved Activity and Pharmacokinetic Properties for the Treatment of Cerebral Ischemia” (J Med Chem, 2025)
Blank lines part the entries; values can stand above or below the compound they belong to.

Columns and labels:
Cortical neurone [1] = test: Neuroprotective activity against NMDA-induced excitotoxic cell death in C57BL/6 mouse primary cortical neurons assessed as cell viability at 10 uM by CCK8 assay (reference value: 16.31 +/- 3.19 %); assay type: functional; conditions: C57BL/6, Cortical neurone, read-out: Activity
Cortical neurone [2] = test: Neuroprotective activity against OGD/R-induced ischemic injury in C57BL/6 mouse primary cortical neurons assessed as cell viability at 10 uM by CCK8 assay (reference value: 21.96 +/- 10.86 %); assay type: functional; conditions: C57BL/6, Cortical neurone, read-out: Activity
[3] = Half life in ICR mouse at 5 mg/kg, iv by LC-MS/MS analysis; assay type: ADME, organism-based; conditions: in vivo
[4] = Tmax in ICR mouse at 5 mg/kg, iv by LC-MS/MS analysis; assay type: ADME, organism-based; conditions: in vivo
[5] = Cmax in ICR mouse at 5 mg/kg, iv by LC-MS/MS analysis; assay type: ADME, organism-based; conditions: in vivo
[6] = AUC (0 to t) in ICR mouse at 5 mg/kg, iv by LC-MS/MS analysis; assay type: ADME, organism-based; conditions: in vivo
[7] = AUC (0 to infinity) in ICR mouse at 5 mg/kg, iv by LC-MS/MS analysis; assay type: ADME, organism-based; conditions: in vivo
[8] = Apparent volume of distribution in ICR mouse at 5 mg/kg, iv by LC-MS/MS analysis; assay type: ADME, organism-based; conditions: in vivo, read-out: Vz
[9] = Clearance in ICR mouse at 5 mg/kg, iv by LC-MS/MS analysis; assay type: ADME, organism-based; conditions: in vivo
[10] = MRT (0 to t) in ICR mouse at 5 mg/kg, iv by LC-MS/MS analysis; assay type: ADME, organism-based; conditions: in vivo
[11] = MRT (0 to infinity) in ICR mouse at 5 mg/kg, iv by LC-MS/MS analysis; assay type: ADME, organism-based; conditions: in vivo
[12] = Half life in ICR mouse at 25 mg/kg, IG by LC-MS/MS analysis; assay type: ADME, organism-based; conditions: in vivo, po
[13] = Tmax in ICR mouse at 25 mg/kg, IG by LC-MS/MS analysis; assay type: ADME, organism-based; conditions: in vivo, po
[14] = Cmax in ICR mouse at 25 mg/kg, IG by LC-MS/MS analysis; assay type: ADME, organism-based; conditions: in vivo, po
[15] = AUC (0 to t) in ICR mouse at 25 mg/kg, IG by LC-MS/MS analysis; assay type: ADME, organism-based; conditions: in vivo, po
[16] = AUC (0 to infinity) in ICR mouse at 25 mg/kg, IG by LC-MS/MS analysis; assay type: ADME, organism-based; conditions: in vivo, po
[17] = MRT (0 to t) in ICR mouse at 25 mg/kg, IG by LC-MS/MS analysis; assay type: ADME, organism-based; conditions: in vivo, po
[18] = MRT (0 to infinity) in ICR mouse at 25 mg/kg, IG by LC-MS/MS analysis; assay type: ADME, organism-based; conditions: in vivo, po
[19] = Oral bioavailability in ICR mouse at 25 mg/kg by LC-MS/MS analysis; assay type: ADME, organism-based; conditions: in vivo

- half-life [3]: 1.82 h
- Tmax [4]: 4.98 min
- Cmax [5]: 207 ng/mL
- AUC(0-t) [6]: 282 ng·h/mL
- AUC(0-inf) [7]: 295 ng·h/mL
- Vd [8]: 44.1 L/kg
- clearance [9]: 293 mL/min/kg
- MRT last [10]: 1.76 h
- MRT inf [11]: 2.15 h
- half-life [12]: 2.07 h
- Tmax [13]: 0.583 h
- Cmax [14]: 348 ng/mL
- AUC(0-t) [15]: 914 ng·h/mL
- AUC(0-inf) [16]: 980 ng·h/mL
- MRT last [17]: 2.38 h
- MRT inf [18]: 2.96 h
- bioavailability [19]: 66.4%
SMILES: CCN(CCN)Cc1cccc(Br)c1
- viability at 10 µM (Cortical neurone [1]): 63.2%
- viability at 10 µM (Cortical neurone [2]): 26.5%

SMILES: CCN(CCN)Cc1cc(C#N)ccc1Br
- viability at 10 µM (Cortical neurone [1]): 77.8%

SMILES: CCN(CCN)C(C)c1cccc(Br)c1F (configuration not stated)
- viability at 10 µM (Cortical neurone [1]): 77%
- viability at 10 µM (Cortical neurone [2]): 55.6%

SMILES: CCN(CCN)Cc1cc(Br)ccc1F
- viability at 10 µM (Cortical neurone [1]): 87.1%

SMILES: CCN(CCN)C(C)c1cc(C#N)ccc1F (configuration not stated)
- viability at 10 µM (Cortical neurone [1]): 82.4%
- viability at 10 µM (Cortical neurone [2]): 34.6%

SMILES: CCN(CCN)Cc1cc(Br)ccc1Cl
- viability at 10 µM (Cortical neurone [1]): 84.9%

SMILES: CCN(CCN)C1(c2cccc(Br)c2)CC1
- viability at 10 µM (Cortical neurone [1]): 39.1%

SMILES: CCN(CCN)Cc1c(F)ccc(Br)c1F
- viability at 10 µM (Cortical neurone [1]): 97.9%

SMILES: NC1CCN(Cc2cccc(Br)c2)C1 (configuration not stated)
- viability at 10 µM (Cortical neurone [1]): 20.1%

SMILES: CCN(CCN)Cc1ccc(F)c(Br)c1
- viability at 10 µM (Cortical neurone [1]): 26.6%

SMILES: CCN(CCN)Cc1cc(F)cc(C#N)c1
- viability at 10 µM (Cortical neurone [1]): 24%

SMILES: CCN(CCN)Cc1cccc(Br)c1I
- viability at 10 µM (Cortical neurone [1]): 11.5%

SMILES: CCN(CCN)Cc1cccc([N+](=O)[O-])c1
- viability at 10 µM (Cortical neurone [1]): 36%

SMILES: CCN(CCN)C(C)c1cccc(C#N)c1 (configuration not stated)
- viability at 10 µM (Cortical neurone [1]): 85.7%
- viability at 10 µM (Cortical neurone [2]): 69.7%

SMILES: CCN(CCN)C(C)c1cc(C#N)ccc1Br (configuration not stated)
- viability at 10 µM (Cortical neurone [1]): 55%

SMILES: CCN(CCN)C(C)(C)c1cccc(Br)c1
- viability at 10 µM (Cortical neurone [1]): 52.5%

SMILES: CCN(CCN)Cc1cc(Br)cc(C#N)c1
- viability at 10 µM (Cortical neurone [1]): 33%

SMILES: CCN(CCN)C(C)c1c(F)ccc(Br)c1F (configuration not stated)
- viability at 10 µM (Cortical neurone [1]): 51.6%

SMILES: CCN(CCN)Cc1cccc(Br)c1F
- viability at 10 µM (Cortical neurone [1]): 86.5%

SMILES: NC1CCCN(Cc2cccc(Br)c2)C1 (configuration not stated)
- viability at 10 µM (Cortical neurone [1]): 33%

SMILES: CCN(CCN)Cc1cccc(-c2ccccc2)c1
- viability at 10 µM (Cortical neurone [1]): 24.9%

SMILES: CCCN(CCN)Cc1cccc(Br)c1
- viability at 10 µM (Cortical neurone [1]): 44.6%

SMILES: CCN(CCNC)Cc1cccc(Br)c1
- viability at 10 µM (Cortical neurone [1]): 17.6%

SMILES: CCN(CCN)Cc1cccc(C#N)c1F
- viability at 10 µM (Cortical neurone [1]): 79.7%

SMILES: CCN(CCN)Cc1cc(C#N)ccc1Cl
- viability at 10 µM (Cortical neurone [1]): 86.5%

SMILES: CCN(CCN)C(C)c1cccc(C#N)c1Br (configuration not stated)
- viability at 10 µM (Cortical neurone [1]): 67.4%
- viability at 10 µM (Cortical neurone [2]): 43.2%

SMILES: CCN(CCN)C(C)c1cc(Br)ccc1Cl (configuration not stated)
- viability at 10 µM (Cortical neurone [1]): 81.6%
- viability at 10 µM (Cortical neurone [2]): 46.6%

SMILES: CCN(CCN)Cc1cc(F)cc(Br)c1
- viability at 10 µM (Cortical neurone [1]): 18.3%

SMILES: CCN(CCN1CCCC1)Cc1cccc(Br)c1
- viability at 10 µM (Cortical neurone [1]): 19.3%

SMILES: CCN(CCN)Cc1cccc(Cl)c1
- viability at 10 µM (Cortical neurone [1]): 44.3%

SMILES: CCN(CCN)Cc1ccc(Br)cc1
- viability at 10 µM (Cortical neurone [1]): 21.2%

SMILES: CCN(CCN)C(C)c1cccc(Br)c1 (configuration not stated)
- viability at 10 µM (Cortical neurone [1]): 95.9%
- viability at 10 µM (Cortical neurone [2]): 53.2%

SMILES: CCN(CCN)C(C)c1cc(Br)ccc1Br (configuration not stated)
- viability at 10 µM (Cortical neurone [1]): 46.6%

SMILES: CCN(CCN(C)C)Cc1cccc(Br)c1
- viability at 10 µM (Cortical neurone [1]): 18.4%

SMILES: CCN(CCN)Cc1c(F)ccc(C#N)c1F
- viability at 10 µM (Cortical neurone [1]): 90.4%

SMILES: CCN(CCN)C(C)c1c(Cl)ccc(C#N)c1F (configuration not stated)
- viability at 10 µM (Cortical neurone [1]): 64.5%
- viability at 10 µM (Cortical neurone [2]): 38.8%

SMILES: CCN(CCN)Cc1cccc(Br)c1Br
- viability at 10 µM (Cortical neurone [1]): 86.5%

SMILES: CCN(CCN)Cc1ccccc1Br
- viability at 10 µM (Cortical neurone [1]): 46.2%

SMILES: CCC(c1cccc(Br)c1)N(CC)CCN (configuration not stated)
- viability at 10 µM (Cortical neurone [1]): 38.3%

SMILES: CCN(CCN)Cc1cccc(C#N)c1Cl
- viability at 10 µM (Cortical neurone [1]): 93.1%

SMILES: CCN(CCN)C(C)c1cccc(C#N)c1F (configuration not stated)
- viability at 10 µM (Cortical neurone [1]): 70.4%
- viability at 10 µM (Cortical neurone [2]): 44.5%

SMILES: CCN(CCN)C(C)c1cc(C#N)ccc1Cl (configuration not stated)
- viability at 10 µM (Cortical neurone [1]): 77.7%
- viability at 10 µM (Cortical neurone [2]): 61.1%

SMILES: CCN(CCN)Cc1c(Cl)ccc(C#N)c1F
- viability at 10 µM (Cortical neurone [1]): 82.9%

SMILES: CCN(CCN)Cc1c(F)ccc(C#N)c1Cl
- viability at 10 µM (Cortical neurone [1]): 88%

SMILES: CCN(CCN)C(C)c1cccc(C#N)c1Cl (configuration not stated)
- viability at 10 µM (Cortical neurone [1]): 85.3%
- viability at 10 µM (Cortical neurone [2]): 59.8%

SMILES: CCN(CCN)Cc1cccc(OC)c1
- viability at 10 µM (Cortical neurone [1]): 39.6%

SMILES: CCN(CCN)Cc1cccc(C)c1
- viability at 10 µM (Cortical neurone [1]): 22.7%

SMILES: CCN(CCN)Cc1cccc(I)c1
- viability at 10 µM (Cortical neurone [1]): 44%

SMILES: CCN(CCN)Cc1ccc(Br)c(C#N)c1
- viability at 10 µM (Cortical neurone [1]): 22.2%

SMILES: CCN(CCN)C(C)c1cc(Br)ccc1F (configuration not stated)
- viability at 10 µM (Cortical neurone [1]): 90.7%
- viability at 10 µM (Cortical neurone [2]): 36.6%

SMILES: CCN(CCN)Cc1cccc(C(F)(F)F)c1
- viability at 10 µM (Cortical neurone [1]): 16.9%

SMILES: CCN(CCN)Cc1cccc(C#N)c1Br
- viability at 10 µM (Cortical neurone [1]): 76.5%

SMILES: CCN(CCN)Cc1cccc(C#N)c1
- viability at 10 µM (Cortical neurone [1]): 92.4%

SMILES: CCN(CCN)Cc1ccc(Cl)c(C#N)c1
- viability at 10 µM (Cortical neurone [1]): 22.6%

SMILES: CCN(CCCN)Cc1cccc(Br)c1
- viability at 10 µM (Cortical neurone [1]): 10.8%

SMILES: CCN(CCN)Cc1cc(C#N)ccc1I
- viability at 10 µM (Cortical neurone [1]): 74.6%

SMILES: CCN(CCN)Cc1cc(C#N)ccc1F
- viability at 10 µM (Cortical neurone [1]): 68.1%

SMILES: CCN(CCN)Cc1ccc(F)c(C#N)c1
- viability at 10 µM (Cortical neurone [1]): 24.1%

SMILES: CCN(CCN)Cc1cc(Br)ccc1Br
- viability at 10 µM (Cortical neurone [1]): 83.4%

SMILES: CCN(CCN)C(C)c1c(F)ccc(C#N)c1Cl (configuration not stated)
- viability at 10 µM (Cortical neurone [1]): 70.5%
- viability at 10 µM (Cortical neurone [2]): 64.3%

SMILES: CCN(CCN)Cc1cccc(F)c1
- viability at 10 µM (Cortical neurone [1]): 32%

SMILES: CCN(CCN)Cc1cccc(Br)c1Cl
- viability at 10 µM (Cortical neurone [1]): 47.1%
